Data: patent US9321773B2, “Compounds” (Respivert Ltd, priority 2009, dated 2016)
Like-named read-outs stand apart in the source and are kept apart here.

Key:
recombinant PI3 kinase α = recombinant PI3 kinase α (Homo sapiens (Human), UniProt P42336); test: Enzyme Inhibition Assay (HTRF PI3K enzyme assay, TR-FRET); type: biochemical; conditions: activity range; read-out: PI3 Kinase Inhibition IC50 values at stated Isozyme α
Text: (§1) PI3 kinases catalyse the phosphorylation of phosphatidylinositol 4,5-biphosphate (PIP2) to phosphatidylinositol 3,4,5-triphosphate (PIP3) in the presence of ATP and Mg^2+ ions. The PIP3 product can be detected by displacement of biotin-PIP3 from energy transfer complexes consisting of europium labelled anti-GST monoclonal antibody, a GST-tagged Pleckstrin homology (PH) domain, biotinylated PIP3 and streptavidin-allophycocyanin (APC) by the time-resolved fluorescence resonance energy transfer (TR-FRET) (HTRF® PI3K enzyme assay, Millipore). […] The PIP3 product formed by PI3K activity displaces biotin-PIP3 from the complex and results in a loss of energy transfer (decreasing signal).
(§2) The compound to be tested was added, at the desired final concentrations, to a mixture of PIP2 substrate and recombinant PI3 kinase α, δ or γ enzymes (Millipore), and the mixture incubated for 2 hr at RT. […] A stopping solution containing biotinylated PIP3 and the detection mix containing the GST tagged GRP1 pleckstrin homology (PH) domain and fluorophores were then added and the mixture was incubated at RT for 15-18 hr, prior to detection in a fluorescence microplate reader (Varioskan® Flash, ThermoFisher Scientific).

[1] = test system: PMA-differentiated U937 cells; test: MTT Assay (cell viability); type: cell-based, Human; conditions: percentage loss of cell viability; for Cell Viability MTT Assay in D-U937 cells at 4 hr: 4 hr in 5% FCS; for Cell Viability MTT Assay in D-U937 cells at 24 hr: 24 hr in 10% FCS
Procedure: PMA-differentiated U937 cells were pre-incubated with compound for 4 hr in 5% FCS or 10% FCS for 24 hr. The supernatant was replaced with 200 μL of new media and 10 μL of MTT stock solution (5 mg/ml) added to each well. After 1 hr incubation, the media were removed, 200 μL of DMSO added to each well and the plates were shaken lightly for 1 hr prior to reading the absorbance at 550 nm. The percentage loss of cell viability was calculated for each well relative to vehicle (0.5% DMSO)-treatment (Table 3).

[2] = test system: H2O2 induced pAkt in D-U937 cells; test: PI3Kδ Cell Based Assay (H2O2 induced pAkt); conditions: Homo sapiens
Procedure: As a means of assessing PI3K 6 activation in response to stimuli, the phosphorylation status of the protein, Akt, a downstream product of PI3K6, signaling was determined. Human monocytic cells (U937 cells), were differentiated to macrophage-type cells by incubation with phorbol myristate acetate (PMA; 100 ng/mL) for 48 to 72 hr. […] The cells were washed with buffer (PBS containing 0.1% Triton X-100) and were incubated with blocking solution (1% BSA in PBS) for 1 hr and were then re-washed with buffer and incubated overnight with either anti-pAkt antibody or anti-pan-Akt antibody (both from Cell Signaling Technology). […] This reaction was stopped by addition of 100 μL of 1N H2SO4 solution. […] The ratio of pAkt signal to total Akt signal was used to quantitate the extent of PI3K δ activation. […] The IC50 values were calculated from the concentration-response curves generated by the serial dilutions of the test compounds (Table 3 and Table 4).

recombinant PI3 kinase δ = recombinant PI3 kinase δ (Homo sapiens (Human), UniProt O00329); test: Enzyme Inhibition Assay (HTRF PI3K enzyme assay, TR-FRET); type: biochemical; conditions: activity range; read-out: PI3 Kinase Inhibition IC50 values at stated Isozyme δ
recombinant PI3 kinase δ, sequence (O00329 whole entry): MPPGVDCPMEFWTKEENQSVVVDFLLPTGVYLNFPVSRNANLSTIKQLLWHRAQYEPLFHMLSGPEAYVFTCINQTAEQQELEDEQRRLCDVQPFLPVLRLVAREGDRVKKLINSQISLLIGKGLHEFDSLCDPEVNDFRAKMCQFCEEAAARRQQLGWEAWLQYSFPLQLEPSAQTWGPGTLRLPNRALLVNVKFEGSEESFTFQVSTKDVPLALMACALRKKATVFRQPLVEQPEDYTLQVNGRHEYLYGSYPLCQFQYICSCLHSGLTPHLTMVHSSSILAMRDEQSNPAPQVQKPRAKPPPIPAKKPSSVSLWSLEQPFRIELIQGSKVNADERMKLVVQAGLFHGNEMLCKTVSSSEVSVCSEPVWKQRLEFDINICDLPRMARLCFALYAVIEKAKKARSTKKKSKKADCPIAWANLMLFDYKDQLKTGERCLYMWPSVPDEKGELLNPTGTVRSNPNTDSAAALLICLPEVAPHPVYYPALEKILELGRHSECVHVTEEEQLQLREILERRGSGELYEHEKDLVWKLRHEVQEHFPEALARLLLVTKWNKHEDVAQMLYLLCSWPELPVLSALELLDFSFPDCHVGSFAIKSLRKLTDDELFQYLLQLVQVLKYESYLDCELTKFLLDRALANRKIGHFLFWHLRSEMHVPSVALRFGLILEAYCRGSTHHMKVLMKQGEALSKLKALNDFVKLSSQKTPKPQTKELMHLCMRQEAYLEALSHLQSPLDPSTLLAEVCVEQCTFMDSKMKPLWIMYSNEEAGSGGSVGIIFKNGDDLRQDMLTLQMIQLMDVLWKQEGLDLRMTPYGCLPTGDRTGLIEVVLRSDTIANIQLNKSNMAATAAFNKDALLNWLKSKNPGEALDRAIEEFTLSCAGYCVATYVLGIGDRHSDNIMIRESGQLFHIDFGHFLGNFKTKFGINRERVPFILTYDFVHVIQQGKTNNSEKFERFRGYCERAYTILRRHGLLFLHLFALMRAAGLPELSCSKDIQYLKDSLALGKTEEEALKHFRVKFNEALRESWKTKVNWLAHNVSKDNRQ
recombinant PI3 kinase δ, sequence (P27986 whole entry partner): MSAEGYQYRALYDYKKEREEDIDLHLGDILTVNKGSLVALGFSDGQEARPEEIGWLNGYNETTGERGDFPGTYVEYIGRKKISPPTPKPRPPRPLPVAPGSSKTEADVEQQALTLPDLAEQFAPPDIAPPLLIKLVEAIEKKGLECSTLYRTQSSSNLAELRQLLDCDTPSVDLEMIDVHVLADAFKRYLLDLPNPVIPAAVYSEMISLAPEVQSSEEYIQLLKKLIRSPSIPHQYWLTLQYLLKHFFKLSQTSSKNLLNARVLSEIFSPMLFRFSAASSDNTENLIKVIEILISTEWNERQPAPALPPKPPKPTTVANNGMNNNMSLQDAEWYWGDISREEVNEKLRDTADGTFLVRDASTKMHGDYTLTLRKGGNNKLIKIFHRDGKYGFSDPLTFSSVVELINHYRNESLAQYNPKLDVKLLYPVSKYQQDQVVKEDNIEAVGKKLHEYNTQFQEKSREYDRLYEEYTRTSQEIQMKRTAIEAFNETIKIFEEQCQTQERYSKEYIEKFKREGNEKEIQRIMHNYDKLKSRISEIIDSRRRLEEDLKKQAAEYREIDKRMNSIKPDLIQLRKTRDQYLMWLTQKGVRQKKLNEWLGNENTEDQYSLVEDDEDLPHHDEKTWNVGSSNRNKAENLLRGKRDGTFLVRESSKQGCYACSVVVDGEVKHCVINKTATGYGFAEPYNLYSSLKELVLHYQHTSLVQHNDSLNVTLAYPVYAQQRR
Text: as §1, §2

recombinant PI3 kinase γ = recombinant PI3 kinase γ (Homo sapiens (Human), UniProt P48736); test: as above; type: biochemical; conditions: activity range; read-out: PI3 Kinase Inhibition IC50 values at stated Isozyme γ
recombinant PI3 kinase γ, sequence (P48736 whole entry): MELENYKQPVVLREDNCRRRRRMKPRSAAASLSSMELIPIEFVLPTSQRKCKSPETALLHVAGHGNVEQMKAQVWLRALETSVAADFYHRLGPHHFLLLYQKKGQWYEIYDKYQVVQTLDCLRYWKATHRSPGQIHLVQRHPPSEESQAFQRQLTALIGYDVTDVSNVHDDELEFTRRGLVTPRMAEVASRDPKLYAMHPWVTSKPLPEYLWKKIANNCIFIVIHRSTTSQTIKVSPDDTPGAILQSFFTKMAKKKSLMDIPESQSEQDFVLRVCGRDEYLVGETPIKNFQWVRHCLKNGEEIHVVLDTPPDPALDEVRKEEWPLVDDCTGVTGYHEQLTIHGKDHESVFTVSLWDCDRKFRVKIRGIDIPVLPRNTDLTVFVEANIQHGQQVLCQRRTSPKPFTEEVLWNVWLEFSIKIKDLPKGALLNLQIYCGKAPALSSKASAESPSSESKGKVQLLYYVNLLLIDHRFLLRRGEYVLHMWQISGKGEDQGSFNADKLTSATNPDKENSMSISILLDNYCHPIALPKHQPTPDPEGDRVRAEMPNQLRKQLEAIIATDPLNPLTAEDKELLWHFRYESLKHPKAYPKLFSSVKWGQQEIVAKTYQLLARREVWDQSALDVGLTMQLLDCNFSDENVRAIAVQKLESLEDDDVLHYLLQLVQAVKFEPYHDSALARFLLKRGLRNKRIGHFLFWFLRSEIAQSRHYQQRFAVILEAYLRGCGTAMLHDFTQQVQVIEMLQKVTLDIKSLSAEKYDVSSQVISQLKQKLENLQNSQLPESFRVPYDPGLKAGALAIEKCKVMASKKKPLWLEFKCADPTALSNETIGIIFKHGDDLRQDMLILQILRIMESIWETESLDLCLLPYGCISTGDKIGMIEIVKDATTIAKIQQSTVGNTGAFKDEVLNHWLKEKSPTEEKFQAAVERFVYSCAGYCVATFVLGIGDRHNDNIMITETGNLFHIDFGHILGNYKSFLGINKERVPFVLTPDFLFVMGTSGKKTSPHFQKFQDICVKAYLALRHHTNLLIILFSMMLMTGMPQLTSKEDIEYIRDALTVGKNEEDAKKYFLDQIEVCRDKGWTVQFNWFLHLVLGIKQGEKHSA
Text: as §1, §2

[3] = dU937, activity range, D-U937 cells, read-out: Cellular Activity IC50 values (H2O2 induced pAkt D-U937 Cells)

recombinant PI3 kinase α, sequence (P42336 whole entry): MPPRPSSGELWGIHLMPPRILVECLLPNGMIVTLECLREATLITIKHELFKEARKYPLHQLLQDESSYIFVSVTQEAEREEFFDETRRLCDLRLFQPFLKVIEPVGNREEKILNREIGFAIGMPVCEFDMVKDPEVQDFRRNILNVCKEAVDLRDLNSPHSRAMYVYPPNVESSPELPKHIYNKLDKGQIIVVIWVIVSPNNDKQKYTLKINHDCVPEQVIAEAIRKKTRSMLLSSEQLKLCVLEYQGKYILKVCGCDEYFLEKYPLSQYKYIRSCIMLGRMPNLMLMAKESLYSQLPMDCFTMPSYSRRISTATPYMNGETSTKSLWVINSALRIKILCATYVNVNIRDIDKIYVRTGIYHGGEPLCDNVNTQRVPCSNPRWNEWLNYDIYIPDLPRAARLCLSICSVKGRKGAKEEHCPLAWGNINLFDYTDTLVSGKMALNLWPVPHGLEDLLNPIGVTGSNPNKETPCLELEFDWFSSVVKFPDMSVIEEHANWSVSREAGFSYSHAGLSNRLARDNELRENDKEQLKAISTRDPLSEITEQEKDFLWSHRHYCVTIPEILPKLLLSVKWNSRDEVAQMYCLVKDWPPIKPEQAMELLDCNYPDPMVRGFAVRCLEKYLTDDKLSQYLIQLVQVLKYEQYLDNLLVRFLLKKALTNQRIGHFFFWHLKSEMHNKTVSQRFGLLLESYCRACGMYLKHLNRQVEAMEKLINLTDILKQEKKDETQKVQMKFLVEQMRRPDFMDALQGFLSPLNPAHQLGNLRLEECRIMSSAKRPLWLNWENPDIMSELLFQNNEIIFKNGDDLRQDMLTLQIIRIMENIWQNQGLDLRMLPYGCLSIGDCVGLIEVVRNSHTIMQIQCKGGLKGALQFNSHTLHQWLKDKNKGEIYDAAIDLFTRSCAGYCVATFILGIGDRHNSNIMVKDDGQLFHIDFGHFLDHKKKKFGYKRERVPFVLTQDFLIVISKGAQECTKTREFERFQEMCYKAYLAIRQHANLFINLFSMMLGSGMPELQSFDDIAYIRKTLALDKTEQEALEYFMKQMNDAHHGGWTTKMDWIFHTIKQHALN
recombinant PI3 kinase α, sequence (P27986 whole entry partner): as the sequence (P27986 whole entry partner) above

Compound | IC50 (recombinant PI3 kinase α) | Cell Viability MTT Assay in D-U937 cells at 4 hr [1] | Cell Viability MTT Assay in D-U937 cells at 24 hr [1] | IC50 [2, 3] | IC50 (recombinant PI3 kinase δ) | IC50 (recombinant PI3 kinase γ) | IC50 ([2]; dU937, read-out: Cellular Activity IC50 values (H2O2 induced pAkt D-U937 Cells))
COCCOCCOCC#Cc1cccc2nc(Cn3nc(-c4cccc(O)c4)c4c(N)ncnc43)n(Cc3ccccc3Cl)c(=O)c12 [Example 2, 2-((4-Amino-3-(3-hydroxyphenyl)-1H-pyrazolo[3,4-d]pyrimidin-1-yl)methyl)-3-(2-chlorobenzyl)-5-(3-(2-(2-methoxyethoxy)ethoxy)prop-1-yn-1-yl)quinazolin-4(3H)-one] | > 1000 nM | − (− <30%) | − (− <30%) | < 10 nM | – | – | –
Nc1ncnc2c1c(-c1cccc(O)c1)nn2Cc1nc2cccc(C#CCCCC(=O)N3CCOCC3)c2c(=O)n1Cc1ccccc1Cl [Example 3, 2-((4-Amino-3-(3-hydroxyphenyl)-1H-pyrazolo[3,4-d]pyrimidin-1-yl)methyl)-3-(2-chlorobenzyl)-5-(6-morpholino-6-oxohex-1-yn-1-yl)quinazolin-4(3H)-one] | < 50 nM | − (− <30%) | − (− <30%) | < 10 nM | < 50 nM | < 50 nM | –
N#Cc1cccc(Cn2c(Cn3nc(-c4cccc(O)c4)c4c(N)ncnc43)nc3cccc(C#CCOCCOCCO)c3c2=O)c1 [Example 6, 3-((2-((4-Amino-3-(3-hydroxyphenyl)-1H-pyrazolo[3,4-d]pyrimidin-1-yl)methyl)-5-(3-(2-(2-hydroxyethoxy)ethoxy)prop-1-yn-1-yl)-4-oxoquinazolin-3(4H)-yl)methyl)benzonitrile] | 50 to 1000 nM | − (− <30%) | − (− <30%) | < 10 nM | < 50 nM | 50 to 1000 nM | –
Nc1ncnc2c1c(-c1ccc(O)cc1)nn2Cc1nc2cccc(C#CCCCNC3CCCC3)c2c(=O)n1Cc1ccccc1Cl [Example 7, 2-((4-Amino-3-(4-hydroxyphenyl)-1H-pyrazolo[3,4-d]pyrimidin-1-yl)methyl)-3-(2-chlorobenzyl)-5-(5-(cyclopentylamino)pent-1-ynyl)quinazolin-4(3H)-one] | 50 to 1000 nM | − (− <30%) | − (− <30%) | < 10 nM | < 50 nM | 50 to 1000 nM | –
Nc1ncnc2c1c(-c1cccc(O)c1)nn2Cc1nc2cccc(C#CCOCCN3CCOCC3)c2c(=O)n1Cc1ccccc1Cl [Example 8, 2-((4-Amino-3-(3-hydroxyphenyl)-1H-pyrazolo[3,4-d]pyrimidin-1-yl)methyl)-3-(2-chlorobenzyl)-5-(3-(2-morpholinoethoxy)prop-1-ynyl)quinazolin-4(3H)-one] | 50 to 1000 nM | − (− <30%) | − (− <30%) | – | < 50 nM | 50 to 1000 nM | < 10 nM
Cc1cnc(Cn2c(Cn3nc(-c4cccc(O)c4)c4c(N)ncnc43)nc3cccc(C#CCCCC(=O)N4CCOCC4)c3c2=O)cn1 [Example 57] | – | − (− <30%) | − (− <30%) | < 10 nM | – | – | –
CC(=O)NCC(=O)NCC#Cc1cccc2nc(Cn3nc(-c4cccc(O)c4)c4c(N)ncnc43)n(Cc3ccccc3Cl)c(=O)c12 [Example 61, 2-Acetamido-N-(3-(2-((4-amino-3-(3-hydroxyphenyl)-1H-pyrazolo[3,4-d]pyrimidin-1-yl)methyl)-3-(2-chlorobenzyl)-4-oxo-3,4-dihydroquinazolin-5-yl)prop-2-yn-1-yl)acetamide] | – | − (− <30%) | − (− <30%) | < 10 nM | – | – | –
Nc1ncnc2c1c(-c1ccc(O)cc1)nn2Cc1nc2cccc(C#CCCCC(=O)NC3CCCC3)c2c(=O)n1Cc1ccccc1Cl [Example 74, 6-(2-((4-Amino-3-(4-hydroxyphenyl)-1H-pyrazolo[3,4-d]pyrimidin-1-yl)methyl)-3-(2-chlorobenzyl)-4-oxo-3,4-dihydroquinazolin-5-yl)-N-cyclopentylhex-5-ynamide] | – | − (− <30%) | − (− <30%) | – | < 50 nM | – | –
Nc1ncnc2c1c(-c1cccc(O)c1)nn2Cc1nc2cccc(C#CCCCC(=O)Nc3ccncc3)c2c(=O)n1Cc1ccccc1Cl [Example 80, 6-(2-((4-Amino-3-(3-hydroxyphenyl)-1H-pyrazolo[3,4-d]pyrimidin-1-yl)methyl)-3-(2-chlorobenzyl)-4-oxo-3,4-dihydroquinazolin-5-yl)-N-(pyridin-4-yl)hex-5-ynamide] | – | − (− <30%) | − (− <30%) | 10 to 1000 nM | < 50 nM | – | –
CN1CCN(CCNC(=O)CCCC#Cc2cccc3nc(Cn4nc(-c5ccc(O)cc5)c5c(N)ncnc54)n(Cc4ccccc4Cl)c(=O)c23)CC1 [Example 84, 6-(2-((4-Amino-3-(4-hydroxyphenyl)-1H-pyrazolo[3,4-d]pyrimidin-1-yl)methyl)-3-(2-chlorobenzyl)-4-oxo-3,4-dihydroquinazolin-5-yl)-N-(2-(4-methylpiperazin-1-yl)ethyl)hex-5-ynamide] | – | − (− <30%) | − (− <30%) | < 10 nM | < 50 nM | – | –
CN1CCN(CCN(C)C(=O)CCCC#Cc2cccc3nc(Cn4nc(-c5ccc(O)cc5)c5c(N)ncnc54)n(Cc4ccccc4Cl)c(=O)c23)CC1 [Example 85, 6-(2-((4-Amino-3-(4-hydroxyphenyl)-1H-pyrazolo[3,4-d]pyrimidin-1-yl)methyl)-3-(2-chlorobenzyl)-4-oxo-3,4-dihydroquinazolin-5-yl)-N-methyl-N-(2-(4-methylpiperazin-1-yl)ethyl)hex-5-ynamide] | – | − (− <30%) | − (− <30%) | < 10 nM | < 50 nM | – | –
CC(C)NC(=O)CCCC#Cc1cccc2nc(Cn3nc(-c4cccc(O)c4)c4c(N)ncnc43)n(Cc3ccccc3Cl)c(=O)c12 [Example 87, 6-(2-((4-Amino-3-(3-hydroxyphenyl)-1H-pyrazolo[3,4-d]pyrimidin-1-yl)methyl)-3-(2-chlorobenzyl)-4-oxo-3,4-dihydroquinazolin-5-yl)-N-isopropylhex-5-ynamide] | – | − (− <30%) | − (− <30%) | < 10 nM | < 50 nM | – | –
CN(C)C1CCN(C(=O)CCCC#Cc2cccc3nc(Cn4nc(-c5cccc(O)c5)c5c(N)ncnc54)n(Cc4ccccc4Cl)c(=O)c23)C1 (stereo not shown) [Example 92, 2-((4-Amino-3-(3-hydroxyphenyl)-1H-pyrazolo[3,4-d]pyrimidin-1-yl)methyl)-3-(2-chlorobenzyl)-5-(6-(3-(dimethylamino)pyrrolidin-1-yl)-6-oxohex-1-ynyl) quinazolin-4(3H)-one] | – | − (− <30%) | − (− <30%) | 10 to 1000 nM | < 50 nM | – | –
CN1CCCN(C(=O)CCCC#Cc2cccc3nc(Cn4nc(-c5cccc(O)c5)c5c(N)ncnc54)n(Cc4ccccc4Cl)c(=O)c23)CC1 [Example 94, 2-((4-Amino-3-(3-hydroxyphenyl)-1H-pyrazolo[3,4-d]pyrimidin-1-yl)methyl)-3-(2-chlorobenzyl)-5-(6-(4-methyl-1,4-diazepan-1-yl)-6-oxohex-1-ynyl)quinazolin-4(3H)-one] | – | − (− <30%) | − (− <30%) | 10 to 1000 nM | 50 to 1000 nM | – | –
